Laboratory results as given in patent US6906098B2, “Mixed steroidal 1,2,4,5-tetraoxane compounds and methods of making and using thereof” (priority 2002, dated 2005).
In brackets after ≈: the same amount, converted by molar mass. Several values for one entry are separate records, joined by “and”; a condition that tells them apart may be missing. Equal values may be shown once. Read-outs that look alike come from different tables or passages of the source.

Columns and labels:
[1] = tested on: Plasmodium falciparum chloroquine-susceptible strain D6; experiment: In vitro antimalarial drug susceptibility assay (radiolabeled hypoxanthine incorporation), strain D6; format: cell-based; details: for Strain D6 IC50: growth inhibition, chloroquine-susceptible strain D6, 66 h incubation; for IC50: Plasmodium falciparum, D6, 66 h
[2] = tested on: Plasmodium falciparum chloroquine-resistant strain W2; experiment: microbe, parasite or virus in culture; format: cell-based; details: for Strain W2 IC50: growth inhibition, chloroquine-resistant strain W2, 66 h incubation; for IC50: Plasmodium falciparum, W2, 66 h
[3] = tested on: D6 and W2 P. falciparum clones; format: cell-based, Plasmodium falciparum; details: for Resistance Index: IC50 (W2)/IC50 (D6) ratio
[4] = tested on: Mycobacterium tuberculosis H37Rv (ATCC 27294); experiment: Primary screen, Microplate Alamar Blue Assay (MABA), percent inhibition; format: cell-based; details: primary screening at 6.25 μg/ml; for inhibition at 6.25 µg/mL: Mycobacterium tuberculosis
Experimental: (§1) The activity of the compounds of the present invention against Mycobacterium tuberculosis was determined using the following assays conducted by the National Institute of Allergy and Infectious Diseases (NIAID) supports a TB drug acquisition and screening program, the TAACF.
To determine the percent inhibition the following assay was conducted. Primary screening was conducted at 6.25 μg/ml (or the molar equivalent of highest molecular weight compound in a given series of congeners) against Mycobacterium tuberculosis H37Rv (ATCC 27294) in BACTEC 12B medium using the Microplate Alamar Blue Assay (MABA). See Collins, L. and S. G. Franzblau. 1997. Microplate alamar blue assay versus BACTEC 460 system for high-throughput screening of compounds against Mycobacterium tuberculosis and Mycobacterium avium. Antimicrob Agents Chemother 41:1004-9, which is herein incorporated by reference.
Minimum compound requirements: 1.0 mg.

M. tuberculosis H37Rv = experiment: Minimum inhibitory concentration (MIC) in the MABA; format: cell-based, Mycobacterium tuberculosis
Experimental: as §1
2. Minimum Inhibitory Concentration (MIC)
The MIC is defined as the lowest concentration effecting a reduction in fluorescence of 90% relative to controls. Minimum compound requirements: 1.0 mg.

[5] = Table 5, Alamar assay, read-out: % Inhib
[6] = Mycobacterium tuberculosis, H37RV, Table 5, Alamar assay, M. tuberculosis H37Rv, read-out: MIC
[7] = Table 5, Alamar assay, M. tuberculosis H37Rv
[8] = read-out: Strain W2 IC50, growth inhibition, chloroquine-resistant strain W2, 66 h incubation
[9] = read-out: Strain D6 IC50, growth inhibition, chloroquine-susceptible strain D6, 66 h incubation

Compound | Strain D6 IC50 [1] [µg/mL] | Strain W2 IC50 [2] [µg/mL] | Resistance Index [3] | % Inhib ([4]; Table 5, Alamar assay) [%] | MIC (M. tuberculosis H37Rv; [7]) [µg/mL] | further results
COC(=O)CCC(C)[C@H]1CCC2C3C(C[C@H](OC(C)=O)[C@@]21C)[C@@]1(C)CCC2(C[C@H]1C[C@H]3OC(C)=O)OOC1(CCC(C)CC1)OO2 (mixture of isomers) [8g/1B08a, Methyl 7α,12α-diacetoxy-5β-cholan-24-oate-3-spiro-6′-(1′,2′,4′,5′-tetraoxacyclohexane)-3′-spiro-1″-((4″R)- and (4″S)-methyl)cyclohexane] | 0.00648 | 0.00327 | 0.50 | – | – | inhibition at 6.25 µg/mL ([4]; Table 3, H37Rv, read-out: Inhibition (%)): 29%; inhibition at 6.25 µg/mL [4, 5]: 29%; MIC (M. tuberculosis H37Rv; Mycobacterium tuberculosis, H37RV, Table 3, H37Rv, read-out: MIC): > 6.25 µg/mL and > 9.63 µM; MIC (M. tuberculosis H37Rv; [6]): > 6.25 µg/mL
COC(=O)CCC(C)[C@H]1CCC2C3C(C[C@H](OC(C)=O)[C@@]21C)[C@@]1(C)CCC2(C[C@H]1C[C@H]3OC(C)=O)OOC1(CCC(C)CC1)OO2 (mixture of isomers) [8h/1B08b, Methyl 7α,12α-diacetoxy-5β-cholan-24-oate-3-spiro-6′-(1′,2′,4′,5′-tetraoxacyclohexane)-3′-spiro-1″-((4″R)- and (4″S)-methyl)cyclohexane] | 0.01599 | 0.00854 | 0.53 | 38 | >6.25 | –
CCC1CCC2(CC1)OOC1(CC[C@]3(C)C4C[C@H](OC(C)=O)[C@@]5(C)C(CC[C@@H]5C(C)CCC(=O)OC)C4[C@H](OC(C)=O)C[C@@H]3C1)OO2 (single isomer, unassigned) [8i/1B13a, Methyl 7α,12α-diacetoxy-5β-cholan-24-oate-3-spiro-6′-(1′,2′,4′,5′-tetraoxacyclohexane)-3′-spiro-1″-((4″R or S)- and (4″S or R)-ethyl)cyclohexane] | 0.00446 | – | 2.10 | – | – | IC50 [2, 8]: 0.00939 µg/mL (≈ 0.0142 µM); inhibition at 6.25 µg/mL [4, 5]: 62%; MIC (M. tuberculosis H37Rv; [6]): > 6.25 µg/mL
CCC1CCC2(CC1)OOC1(CC[C@]3(C)C4C[C@H](OC(C)=O)[C@@]5(C)C(CC[C@@H]5C(C)CCC(=O)OC)C4[C@H](OC(C)=O)C[C@@H]3C1)OO2 (single isomer, unassigned) [8j/1B13b, Methyl 7α,12α-diacetoxy-5β-cholan-24-oate-3-spiro-6′-(1′,2′,4′,5′-tetraoxacyclohexane)-3′-spiro-1″-((4″R or S)- and (4″S or R)-ethyl)cyclohexane] | 0.01173 | 0.01876 | 1.60 | 65 | >6.25 | –
COC(=O)CCC(C)[C@H]1CCC2C3C(C[C@H](OC(C)=O)[C@@]21C)[C@@]1(C)CCC2(C[C@H]1C[C@H]3OC(C)=O)OOC1(CCC(C(C)(C)C)CC1)OO2 (single isomer, unassigned) [8k/1B09a, Methyl 7α,12α-diacetoxy-5β-cholan-24-oate-3-spiro-6′-(1′,2′,4′,5′-tetraoxacyclohexane)-3′-spiro-1″-(4″R or S)- and (4″S or R)-t-butyl)cyclohexane] | 0.07426 | – | 0.49 | – | – | IC50 [2, 8]: 0.0364 µg/mL (≈ 0.0527 µM); % Inhib ([4]; Table 5, Alamar assay, listed as 8g 1B09a): 32%; MIC (M. tuberculosis H37Rv; Mycobacterium tuberculosis, H37RV, Table 5, Alamar assay, M. tuberculosis H37Rv): > 6.25 µg/mL
COC(=O)CCC(C)[C@H]1CCC2C3C(C[C@H](OC(C)=O)[C@@]21C)[C@@]1(C)CCC2(C[C@H]1C[C@H]3OC(C)=O)OOC1(CCC(C(C)(C)C)CC1)OO2 (single isomer, unassigned) [8l/1B09b, Methyl 7α,12α-diacetoxy-5β-cholan-24-oate-3-spiro-6′-(1′,2′,4′,5′-tetraoxacyclohexane)-3′-spiro-1″-(4″R or S)- and (4″S or R)-t-butyl)cyclohexane] | 0.03584 | 0.01919 | 0.54 | 0 | >6.25 | times more active than bis(1,1-dioxy-4-tert-butylcyclohexane) ([3]; antimalarial activity versus literature tetraoxane): ca. 3.7 times
CCC1CCC2(CC1)OOC1(CC[C@]3(C)C4C[C@H](OC(C)=O)[C@@]5(C)C(CC[C@@H]5C(C)CCC(=O)O)C4[C@H](OC(C)=O)C[C@@H]3C1)OO2 (single isomer, unassigned) [9i/1C34, 7α,12α-Diacetoxy-5β-cholan-24-oic acid-3-spiro-6′-(1′,2′,4′,5′-tetraoxacyclohexane)-3′-spiro-1″-((4″R or S)-ethyl)cyclohexane] | – | – | 1.26 | – | – | IC50 [1, 9]: 0.00374 µg/mL (≈ 0.00576 µM); IC50 [2, 8]: 0.00471 µg/mL (≈ 0.00726 µM); inhibition at 6.25 µg/mL [4, 5]: 80%; MIC (M. tuberculosis H37Rv; [6]): > 6.25 µg/mL
CCC1CCC2(CC1)OOC1(CC[C@]3(C)C4C[C@H](OC(C)=O)[C@@]5(C)C(CC[C@@H]5C(C)CCC(N)=O)C4[C@H](OC(C)=O)C[C@@H]3C1)OO2 (single isomer, unassigned) [29/1C40, 7α,12α-Diacetoxy-5β-cholan-24-amide-3-spiro-6′-(1′,2′,4′,5′-tetraoxacyclohexane)-3′-spiro-1″-((4″S or R)-ethyl)cyclohexane] | 0.02012 | 0.00811 | 0.40 | 100 | 3.13 (≈ 4.83 µM) | –
CCNC(=O)CCC(C)[C@H]1CCC2C3C(C[C@H](OC(C)=O)[C@@]21C)[C@@]1(C)CCC2(C[C@H]1C[C@H]3OC(C)=O)OOC1(CCC(CC)CC1)OO2 (single isomer, unassigned) [31/1C42, N-Ethyl-7α,12α-Diacetoxy-5β-cholan-24-amide-3-spiro-6′-(1′,2′,4′,5′-tetraoxacyclohexane)-3′-spiro-1″-((4″S or R)-ethyl)cyclohexane] | 0.01564 | 0.01222 | 0.78 | 83 | >6.25 | –
CCCNC(=O)CCC(C)[C@H]1CCC2C3C(C[C@H](OC(C)=O)[C@@]21C)[C@@]1(C)CCC2(C[C@H]1C[C@H]3OC(C)=O)OOC1(CCC(CC)CC1)OO2 (single isomer, unassigned) [32/1C43, N-(n-Propyl)-7α,12α-Diacetoxy-5β-cholan-24-amide-3-spiro-6′-(1′,2′,4′,5′-tetraoxacyclohexane)-3′-spiro-1″-((4″S or R)-ethyl)cyclohexane] | 0.0622 | 0.08464 | 1.36 | 71 | >6.25 | antimalarial activity in words ([3]; D6 and W2 clones, Table 2): inactive
COC(=O)CCC(C)[C@H]1CCC2C3C(C[C@H](OC(C)=O)[C@@]21C)[C@@]1(C)CCC2(C[C@H]1C[C@H]3OC(C)=O)OOC1(CCC(c3ccccc3)CC1)OO2 (single isomer, unassigned) [Compound 1B14b, Methyl 7α,12α-diacetoxy-5β-cholan-24-oate-3-spiro-6′-(1′,2′,4′,5′-tetraoxacyclohexane)-3′-spiro-1″-((4″R or S)- and (4″S or R)-phenyl)cyclohexane] | 0.03176 | 0.025 | 0.79 | 46 | >6.25 | Inhibition (%) ([4]; Table 3, H37Rv): 46%; MIC (M. tuberculosis H37Rv; Table 3, H37Rv): >6.25 µg/mL
CCN(CC)CCCC(C)Nc1ccnc2cc(Cl)ccc12 (stereo not shown) [Chloroquine, reference compound] | – | – | – | – | – | IC50 ([1]; read-out: Strain D6 IC50): 0.00371 µg/mL (≈ 0.0116 µM); IC50 ([2]; read-out: Strain W2 IC50): 0.0883 µg/mL (≈ 0.276 µM)
OC(c1cc(C(F)(F)F)nc2c(C(F)(F)F)cccc12)C1CCCCN1 (stereo not shown) [Mefloquine, reference compound] | – | – | – | – | – | IC50 [1, 9]: 0.0106 µg/mL (≈ 0.0281 µM)
Methyl 7α,12α-diacetoxy-5β-cholan-24-oate-3-spiro-6′-(1′,2′,4′,5′-tetraoxacyclohexane)-3′-spiro-1″-((4″R or S)- and (4″S or R)-ethoxycarbonyl)cyclohexane [Compound 1B12a] | 0.00672 | 0.01256 | 1.87 | – | – | –
Methyl 7α,12α-diacetoxy-5β-cholan-24-oate-3-spiro-6′-(1′,2′,4′,5′-tetraoxacyclohexane)-3′-spiro-1″-((4″R or S)- and (4″S or R)-ethoxycarbonyl)cyclohexane [Compound 1B12b] | 0.03101 | 0.05492 | 1.77 | – | – | –
